Measurements from ChEMBL document CHEMBL1126174 (J Med Chem, 1992).

Tests used:
[1] = molecular target: T1, Muscarinic acetylcholine receptor M1 (Rattus norvegicus, UniProt P08482)
T1 sequence (P08482 whole entry): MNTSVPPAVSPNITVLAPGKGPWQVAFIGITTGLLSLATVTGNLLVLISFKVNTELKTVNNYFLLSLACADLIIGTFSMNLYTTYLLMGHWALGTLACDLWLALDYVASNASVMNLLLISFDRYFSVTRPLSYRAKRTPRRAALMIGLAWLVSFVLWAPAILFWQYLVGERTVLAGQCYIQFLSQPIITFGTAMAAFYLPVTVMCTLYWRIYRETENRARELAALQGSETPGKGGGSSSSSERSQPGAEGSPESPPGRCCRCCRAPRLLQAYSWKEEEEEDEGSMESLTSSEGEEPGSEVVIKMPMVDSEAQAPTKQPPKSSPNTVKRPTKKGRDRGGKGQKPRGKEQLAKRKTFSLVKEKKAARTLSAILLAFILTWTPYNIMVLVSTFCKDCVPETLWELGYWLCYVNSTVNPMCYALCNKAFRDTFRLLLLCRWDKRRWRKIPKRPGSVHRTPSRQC
Description: Ability to displace [3H]pirenzepine (pir) from muscarinic acetylcholine receptor M1 in rat cortical tissue.

[2] = molecular target: T2, Muscarinic acetylcholine receptor M1 (Rattus norvegicus) (UniProt P08482); settings: Hippocampus
T2 sequence (whole entry): T1 sequence (P08482 whole entry)

[3] = molecular target: Muscarinic acetylcholine receptor
Description: Ability to displace [3H]cis--2-methyl-5-((dimethylamino)methyl)-1,3-di oxolane from muscarinic acetylcholine receptor in rat cortical tissue.

[4] = molecular target: T2, Muscarinic acetylcholine receptor M1 (Rattus norvegicus); settings: Cervical ganglion
[5] = molecular target: Muscarinic acetylcholine receptor M3 (Cavia porcellus) (UniProt Q8VH26); settings: Ileum
Description: Peripheral postsynaptic muscarinic activity by contraction of the guinea pig ileum.

[6] = molecular target: Muscarinic acetylcholine receptor; remark: listed apart in the source
[7] = molecular target: Muscarinic acetylcholine receptor M3 (Cavia porcellus) (UniProt Q8VH26); experiment: (§1) Peripheral postsynaptic muscarinic activity was measured by contraction of the guinea pig ileum in M3 model; format: functional, tissue-based
[8] = molecular target: T2, Muscarinic acetylcholine receptor M1 (Rattus norvegicus); experiment: Central postsynaptic muscarinic activity was measured by slow depolarization of the rat cervical ganglion in M1 model; format: functional, tissue-based
[9] = molecular target: Muscarinic acetylcholine receptor M3 (Cavia porcellus) (UniProt Q8VH26); experiment: Peripheral postsynaptic muscarinic activity was measured relative to muscarine (100%); format: functional
[10] = molecular target: T2, Muscarinic acetylcholine receptor M1 (Rattus norvegicus); experiment: Neuronal postsynaptic muscarinic activity was measured by firing rate of the rat hippocampal CA1 neurons in M1 model; format: functional, tissue-based; settings: Hippocampus
[11] = molecular target: T2, Muscarinic acetylcholine receptor M1 (Rattus norvegicus); experiment: Central postsynaptic muscarinic activity was measured relative to muscurine (100%); format: functional, tissue-based
[12] = molecular target: T1, Muscarinic acetylcholine receptor M1; experiment: Compound was tested for its ability to displace [3H]pirenzepine (pir) from M1 Muscarinic receptor in rat cortical tissue
[13] = Ratio of binding affinities towards muscarinic receptor using Pir to that of CD as radioligand
Cavia porcellus = species: Cavia porcellus; experiment: as §1; format: functional

Chain of Muscarinic acetylcholine receptor M3 (Cavia porcellus) (Q8VH26 1-587): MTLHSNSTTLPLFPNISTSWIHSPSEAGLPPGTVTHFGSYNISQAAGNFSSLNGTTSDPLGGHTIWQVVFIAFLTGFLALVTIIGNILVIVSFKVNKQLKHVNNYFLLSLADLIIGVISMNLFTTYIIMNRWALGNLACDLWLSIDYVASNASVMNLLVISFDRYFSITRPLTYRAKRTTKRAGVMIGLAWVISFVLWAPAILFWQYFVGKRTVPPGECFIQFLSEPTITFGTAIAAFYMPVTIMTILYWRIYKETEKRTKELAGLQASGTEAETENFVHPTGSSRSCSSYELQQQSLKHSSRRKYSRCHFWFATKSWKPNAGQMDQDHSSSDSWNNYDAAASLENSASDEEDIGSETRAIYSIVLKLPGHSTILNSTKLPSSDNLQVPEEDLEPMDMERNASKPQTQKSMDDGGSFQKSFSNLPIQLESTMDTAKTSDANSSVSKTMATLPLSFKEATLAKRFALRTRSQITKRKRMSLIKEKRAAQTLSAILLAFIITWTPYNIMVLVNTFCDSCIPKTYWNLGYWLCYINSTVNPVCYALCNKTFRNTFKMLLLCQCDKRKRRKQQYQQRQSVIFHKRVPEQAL

Compound	IC50 [1] [µM]	pD2 [2]	IC50 [3] [µM]	pD2 [4]	pD2 [5]	further results
CC[C@H]1C(=O)N(C)C[C@@H]1Cc1cncn1C	10	4.1	10	4.4	< 4	
CC[C@@H]1C(=O)SC[C@@H]1Cc1cncn1C	0.435	5.3	0.054	6.5	5.3	
CC[C@H]1C(=S)SC[C@@H]1Cc1cncn1C	0.051		0.045	5.2	5.6	
CC1OCC(CN(C)C)O1 (stereo unspecified)	2.1	6.3	0.0064	7.8	7.5	
CCN1C(=O)OC[C@@H]1Cc1cncn1C	0.288	5.6	0.1	6.1	5.4	
C[C@@H]1O[C@H](C[N+](C)(C)C)C[C@H]1O		5.9		7.4	6.8	
CC[C@@H]1C(=O)N(C)C[C@@H]1Cc1cncn1C	10.2		4.6	100	4.2	
CC[C@@H]1C(=O)NC[C@@H]1Cc1cncn1C	5.15	4.5	0.845	5.2	4.2	
C[N+](C)(C)CCOC(N)=O		6		7.2	6.7	
CC[C@@H]1C(O)SC[C@@H]1Cc1cncn1C (stereo partly specified)	0.695	< 4	0.705	4.4	< 4	
CC[C@@H]1COC[C@@H]1Cc1cncn1C	1.8	< 4	0.445	5.7	4.5	
CC[C@@H]1C(O)OC[C@@H]1Cc1cncn1C (stereo partly specified)						IC50 [6]: 45 µM; pD2 [7]: 5.2; pD2 [8]: 5.9; Efficiency [9]: 22%; pD2 [10]: < 4; Efficiency [11]: 65%; IC50 [12]: 110 µM; Ratio [13]: 2.4
Cc1ccc(C[N+](C)(C)C)o1	1.41	5.8	0.0056	7.1		pD2 (Cavia porcellus): 6.8
CC[C@H]1C(=O)SC[C@@H]1Cc1cncn1C	0.775	5.4	0.32	4.7	4.8	
O=C1CCCN1CC#CCN1CCCC1 [OXOTREMORINE]	0.113	7.1	0.0028	8	7.1	
CC[C@H]1C(O)SC[C@@H]1Cc1cncn1C (stereo partly specified)	0.285	< 4	0.33	4.7	< 4	
Cn1cncc1C[C@H]1COC(=O)C1 [PILOSININE]	10		2.89	4.2	< 4	
CC[C@H]1C(=O)NC[C@@H]1Cc1cncn1C	9.95	4.7	0.8	5.6	4.6	
